# Experimental data: patent publication US6852698B2, “Free radical scavengers or promoters thereof as therapeutic adjuvants in preterm parturition” (priority 2000, dated 2005)
# Columns and labels:
# MMP-2 = experiment: Gelatin zymography of medium from incubated human term amniochorionic membranes, MMP-2; assay type: cell-based
# Text: Tissues: Full thickness amniochorionic membranes were collected from seven patients without complications of pregnancy undergoing elective C-section at term. The fragment collected was selected from a region at least 10 cm away from the placenta. Immediately after collection, membranes were placed in minimum essential medium (MEM) (Gibco, Grand Island, N.Y.) on ice. Tissue samples were then cut under sterile conditions with a scalpel blade into smaller pieces of similar size. Over the next 30 min., the pieces of membranes were rinsed thoroughly with several changes of MEM and then sterile phosphate buffered saline (PBS) pH=7.8. Preweighed amounts of tissue (approximately 500 mg) consisting of several pieces selected at random were placed in a CO2 incubator with a humidified chamber at 37° C. for 24 hours. Incubations were carried out in a total volume of 2 ml buffer. Both wet weight and dry weight of tissue pieces were determined after incubation and after drying overnight at 60° C., respectively. After incubation the culture-conditioned medium was collected, briefly spun at 1000 g to remove cellular debris and loaded directly on gelatin gels. The concentration of protein in the aliquots of medium was measured with a BCA kit (Pierce, Rockford, Ill.). […]
# SDS-Substrate gel electrophoresis (zymography): For detection of MMPs, equal volumes (15 μl) of conditioned medium (containing the activated MMPs) were mixed in a 1:3 ratio with substrate gel buffer (10% SDS, 4% sucrose, 0.25 M Tris-HCl, pH=6.8 and 0.1% bromphenol blue) and loaded directly onto gels without boiling (Raj agopalan et al., 1996 with modifications). […] In order to quantify the gelatinolytic activity of MMPs, the wet gel was scanned on a GS-670 Image Densitometer (Bio-Rad), and analyzed using Multianalyst v1.1 volume quantification system software (Bio-Rad). […]
# MMP-9 = experiment: Gelatin zymography of medium from incubated human term amniochorionic membranes, MMP-9; assay type: cell-based; conditions: for Effect on the increase in MMP-9 induced by X/XO: X 2 mM + XO 20 mU/ml, SOD 500 U/ml
# Text: Tissues: Full thickness amniochorionic membranes were collected from seven patients without complications of pregnancy undergoing elective C-section at term. The fragment collected was selected from a region at least 10 cm away from the placenta. Immediately after collection, membranes were placed in minimum essential medium (MEM) (Gibco, Grand Island, N.Y.) on ice. Tissue samples were then cut under sterile conditions with a scalpel blade into smaller pieces of similar size. Over the next 30 min., the pieces of membranes were rinsed thoroughly with several changes of MEM and then sterile phosphate buffered saline (PBS) pH=7.8. Preweighed amounts of tissue (approximately 500 mg) consisting of several pieces selected at random were placed in a CO2 incubator with a humidified chamber at 37° C. for 24 hours. Incubations were carried out in a total volume of 2 ml buffer. Both wet weight and dry weight of tissue pieces were determined after incubation and after drying overnight at 60° C., respectively. After incubation the culture-conditioned medium was collected, briefly spun at 1000 g to remove cellular debris and loaded directly on gelatin gels. The concentration of protein in the aliquots of medium was measured with a BCA kit (Pierce, Rockford, Ill.).
# Drugs and incubations: Incubations were performed in the presence of xanthine (X: 2 mM), xanthine oxidase (XO: 20 mU/ml), the combination xanthine+xanthine oxidase (X/XO), superoxide dismutase (SOD: 500 U/ml), X/XO/SOD, nitro-L-arginine (a nonspecific nitric oxide synthase inhibitor, LNA: 1 mM), X/XO/LNA, S-nitroso-N-acetyl penicillamine (a nitric oxide donor, SNAP 10 mM), X/XO/SNAP, N-acetyl cysteine (NAC: 0.1, 1, 10 mM), lipopolysaccharide (LPS 100 ng/ml). All chemicals were purchased from Sigma (St. Louis, Mo.) unless otherwise specified.
# SDS-Substrate gel electrophoresis (zymography): For detection of MMPs, equal volumes (15 μl) of conditioned medium (containing the activated MMPs) were mixed in a 1:3 ratio with substrate gel buffer (10% SDS, 4% sucrose, 0.25 M Tris-HCl, pH=6.8 and 0.1% bromphenol blue) and loaded directly onto gels without boiling (Raj agopalan et al., 1996 with modifications). Briefly, type I gelatin was added to a standard Laemmli 10% acrylamide polymerization mixture at a final concentration of 1 mg/ml. Following electrophoresis, the proteins in the gel were renatured by exchanging SDS with Triton X-100 and the gels were incubated overnight at 37° C. in 50 mM TRIS-HCl, pH=7.4 containing 10 mM CaCl2 and 0.05% Brij 35. At the end of the incubation, the gels were stained with 0.5% Coomassie Blue R-250 (Bio-Rad, Hercules, Calif.) in 40% methanol/10% acetic acid, then destained in 40% methanol/10% acetic acid for 1 h. Proteins having gelatinolytic activity appeared as discrete translucent areas of lytic activity on an otherwise blue gel. When the gels are incubated in parallel with 0.01 M EDTA, disappearance of lytic bands confirms the metal dependence of MMP activity. Migration of proteins was compared with that of prestained broad molecular weight markers (Bio-Rad). Further, 10 ng/lane of zymography standards (recombinant MMP-2/MMP-9, Calbiochem, La Jolla, Calif.) were run along with the samples. In order to quantify the gelatinolytic activity of MMPs, the wet gel was scanned on a GS-670 Image Densitometer (Bio-Rad), and analyzed using Multianalyst v1.1 volume quantification system software (Bio-Rad). […]
# extracellular O2− [1] = experiment: Placental extracellular superoxide production (SOD-inhibitable NBT reduction); assay type: in vivo, mice
# Protocol: Placental extracellular superoxide production: Placental extracellular superoxide production was determined by the SOD-inhibitable reduction of nitroblue tetrazolium. Briefly, after sacrifice duplicate placentas where incubated each in 1 ml 1 mg/ml nitroblue tetrazolium (NBT) diluted in PBS, for 1 h. in a CO2 incubator with humidified chamber at 37° C. The soluble yellow form of NBT is reduced by O2.^− generated within the tissue to form an insoluble precipitate of blue-purple formazan that discolorates the tissue. Extracellular O2.^− produces a discoloration of the incubation medium. The incubation was performed in the presence and absence of SOD. The difference in absorbance at 655 nm normalized by the dry weight of placenta between the average of the duplicates in the presence and absence of SOD represents the SOD-inhibitable O2.^− production and was expressed in normalized arbitrary units.
# C57B16 inbred mice [2] = experiment: Fetal outcome (viability) in LPS-injected pregnant mice; assay type: in vivo; conditions: for Fetuses dead in utero: 16 h after LPS
# Protocol: (§1) Animals and treatments: C57B16 inbred mice were housed together with CD57/BL6 males under regular light and dark cycles, with stable ambient temperature conditions. The next morning the females were examined for the presence of a vaginal plug. The day of detection of the vaginal plug was designated as day 0. On day 16 of pregnancy the pregnant mice were injected i.p. with either 10 μg lipopolysaccharide (LPS: from E Coli 0111.:B4 from Calbiochem) or saline (controls). N-Acetylcysteine 1 g/kg (NAC: which is a membrane permeable GSH precursor, Sigma, St. Louis Mo. and direct antioxidant) was given p.o. by gavage 30 min before and 2 h after the LPS injection. NAC was diluted in phosphate buffered saline (PBS). After 12 hours the animals were inspected hourly for signs of parturition (posture, bleeding). The time between LPS injection and delivery of the first pup was defined as latency. Fetal viability at birth was recorded after tactile stimulation of the pup. To separate between the effect of prematurity on the fetus and the in utero consequence of endotoxin administration on the fetus, animals were sacrificed at 3, 6 and 16 hours after endotoxin injection in a separate set of experiments.
# glutathione = experiment: Total glutathione in maternal and fetal livers; assay type: in vivo, mice; conditions: 16 h
# Protocol: Measurement of total glutathione: Glutathione content was measured in maternal and fetal livers of animals treated with and without NAC and sacrificed at 3, 6 and 16 hours after LPS injection. Fetal livers were pooled from all fetuses of each pregnant animal, snap frozen in liquid nitrogen and stored at −80° C. until assayed. Briefly, the frozen tissue was rapidly homogenized in 7.5% trichloroacetic acid in a ratio of 1:20 (w/v). The homogenate was centrifuged at 3000 g for 10 min at 4° C. Total glutathione content was assayed in the supernatant by a colorimetric reaction that involves the formation of a chromophoric thione (Bioxytech GSH-420, Oxis Health Products, Portland, Oreg.) and was expressed in μg/ml by using oxidized glutathione standards and further normalized by the total protein content of the pellet. The protein pellet was solubilized in 0.1 N NaOH and its protein content was estimated using a BCA protein assay kit (Pierce, Rockford, Ill.).
# [3] = tested on: superoxide anion in fetal membranes; experiment: Nitroblue tetrazolium (formazan) assay of superoxide generation in fetal membranes; assay type: cell-based, human
# Protocol: Intracellular superoxide anion generation: Pieces of fetal membranes were immersed in Krebs bicarbonate buffer (118 mM NaCl, 4.7 mM KCl, 1.18 MM MgSO4, 1.18 mM KH2PO4, 11.1 mM D-glucose, 0.016 mM EDTA, 2.2 mM CaCl2, 15.8 mM NaHCO3, pH=7.35−7.4) containing 1 mg/ml nitroblue tetrazolium (NBT), for 180 min. in the CO2 incubator with humidified chamber at 37° C. The soluble yellow form of NBT is reducedby O2.^− generated within the tissue to form an insoluble precipitate of blue-purple formazan. After incubation, the fetal membranes were washed in saline, photographed, placed in 4% formaldehyde and kept overnight in a refrigerator. Specimens were then embedded in OCT Tissue Tek embedding medium (Fisher Scientific, Pittsburgh, Pa.) and frozen in liquid nitrogen. The frozen specimens were cut by cryostat into 20 μm sections, mounted onto electrostatically treated-glass slides (Fisherbrand Superfrost Plus, Fisher Scientific) and counterstained with Neutral Red. They were immediately investigated by light microscopy using a Nikon Eclipse E1000M microscope connected to an MTI DC330 3CCD Color Camera (Dage MTI Inc., Michigan City, Mich.).
# C57B16 inbred mice [4] = experiment: Timing of birth (latency) in LPS-injected pregnant mice; assay type: in vivo
# Protocol: as §1, with “N-Acetylcysteine 1 g/kg (NAC: which is a membrane permeable GSH precursor, Sigma, St. Louis Mo. and direct antioxidant) was given p.o. by gavage 30 min before and 2 h after the LPS injection.” left out
# extracellular O2− [5] = experiment: Cytochrome c reduction assay of the X/XO reaction; assay type: biochemical; conditions: SOD 500 U/ml
# Protocol: Extracellular superoxide anion generation: O2^− was generated enzymatically from the reaction between 2 mM xanthine (X) and 20 mU/ml xanthine oxidase (XO), as described by McCord and Fridovich (1969). Though these amounts are larger than those routinely used for in vitro generation of O2^− in cell-free experiments, we have based our decision on the presence of both XO and SOD in fetal membranes (Telfer et al., 1997) and on our assumption that the expression of these enzymes will change the efficiency of the X/XO reaction. As a result we monitored the efficiency of the X/XO reaction in our experimental setting by a cytochrome c assay, both in tissue-free conditions as well as in the presence of the tissue (Babior et al., 1973).
# [6] = parameters: species or system mice; conditions: mouse, in vivo
# Protocol: We have experimentally investigated the transplacental passage of spin trapping compounds. Methodology: C57B16 mice were injected ip with 4 mmols/kg POBN [a-(4-pyridyl-1-oxide-N-t-butylnitrone)] on day 16 of pregnancy. Animals were sacrificed at different times after injection, 2-5 fetuses collected and lipids extracted as described by Brackett et al., 1989. Electron paramagnetic spectra were obtained in a Varian EPR spectrometer equipped with an X-band microwave bridge with center field set at 3376 Gauss and modulation frequency at 100 Hz. The extracts were examined before and after in vitro addition of a hydroxyl radical generating Fenton mixture (Fe^2++H2O2).
# [7] = SNAP 10 mM, LNA 1 mM, data not shown
# [8] = 10 mM NAC, 24 h incubation of human term fetal membranes
# [9] = NAC 10 mM, human fetal membranes
# [10] = addition of SOD, 3 hour incubation with NBT
compound,measurement,setting,value
"CC(=O)N[C@H](C(=O)O)C(C)(C)SN=O [SNAP, S-nitroso-N-acetyl penicillamine]",Effect on fetal membrane MMP activity (MMP-2),MMP-2; [7],nor the NO donor SNAP had any significant effect
same,Effect on fetal membrane MMP activity (MMP-9),MMP-9; [7],nor the NO donor SNAP had any significant effect
lipopolysaccharide [LPS],Increase in extracellular O2− production in placentas,extracellular O2− [1]; LPS-injected animals at 3 hours,2.7 fold
same,Fetuses dead in utero,C57B16 inbred mice [2]; LPS group without NAC,63%
same,Vaginal stillbirth rate,C57B16 inbred mice [2]; LPS group without NAC,100%
"CC(=O)N[C@@H](CS)C(=O)O [NAC, N-acetylcysteine]","MMP-2 activity, % of the levels from the CRL tissue",MMP-2; [8],20%
same,Effect on MMP-2 in the presence and absence of LPS,MMP-2; [9],dramatically inhibited
same,Maternal liver GSH,"glutathione; LPS-treated pregnant mice, NAC p.o.",prevented the decrease
same,Fetal liver GSH content,"glutathione; fetuses of LPS-injected mice, maternal NAC p.o.",not different from either CRL or LPS
same,Formazan formation in the incubated tissue (macroscopic),"[3]; NAC 10 mM, 3 hour incubation with NBT",completely abolished
same,Formazan deposits by light microscopy (intracellular O2− formation),[3]; tissues exposed to NAC,no formazan deposits
same,Latency compared statistically with CRL and LPS groups,C57B16 inbred mice [4]; LPS plus NAC,no longer different from either CRL or LPS animals
same,Latency period (LPS injection until delivery),"C57B16 inbred mice [4]; LPS plus two doses of 1 mg/kg NAC per os, 1 h before and 2 h after LPS, n=12",35.13 ± 6.41 h
same,Kaplan-Maier survival analysis of cumulative birth rates,C57B16 inbred mice [4]; LPS-injected mice with or without NAC,did not reveal a significant NAC effect
same,Time of delivery after saline injection,"C57B16 inbred mice [4]; NAC alone, no LPS, n=7",67.71 ± 5.8 h
same,"MMP-9 activity, % of the levels from the CRL tissue",MMP-9; [8],20%
same,Effect on MMP-9 in the presence and absence of LPS,MMP-9; [9],dramatically inhibited
same,Effect on the increase in MMP-9 induced by X/XO,MMP-9; human fetal membranes,prevented the increase in MMP-9
same,Effect on the LPS-induced increase in placental extracellular O2− production,"extracellular O2− [1]; LPS plus NAC, 3 hours",not seen
same,Fetuses dead in utero,"C57B16 inbred mice [2]; group that received LPS plus NAC, p=0.006 vs LPS group",37%
same,Proportion of pups born alive,C57B16 inbred mice [2]; mice given NAC before and after LPS,statistically significant increase
superoxide dismutase [SOD],Change in absorbance at 550 nm (cytochrome c reduction by X/XO),extracellular O2− [5],completely inhibited
same,Extracellular formazan formation induced by X/XO,[3]; [10],inhibited completely
same,Intracellular formazan formation induced by X/XO,[3]; [10],only partially
same,Effect on the increase in MMP-9 induced by X/XO,MMP-9; human fetal membranes,reversed
"CC(C)(C)[N+]([O-])=Cc1cc[n+]([O-])cc1 [POBN, a-(4-pyridyl-1-oxide-N-t-butylnitrone)]","Additional difference in magnitude of the EPR signal, fetus 6 h vs maternal liver 1 h or fetus 1 h",[6],10 fold
